These results are taken from US20070117770A1, “Human ribosomal DNA (rDNA) and ribosomal RNA (rRNA) nucleic acids and uses thereof” (Cylene Pharmaceuticals, Inc., priority 2005, published 2007).

Assay in all cases: Protein kinase inhibition assay
The target of experiment [1] is SGK2(h) (Homo sapiens, UniProt Q9HBY8). Format: biochemical. As to conditions: read-out: percent residual activity of SGK2(h). The protocol:
(§1) Certain compounds were tested for activity in protein kinase inhibition assays. All substrates were dissolved and diluted to working stocks in de-ionized water, apart from histone H1 (10× working stock in 20 mM MOPS pH 7.0), PDKtide (10× working stock in 50 mM Tris pH 7.0) ATF2 (which is typically stored at a 20× working stock in 50 mM Tris pH 7.5, 150 mM NaCl, 0.1 mM EGTA, 0.03% Brij-35, 50% glycerol, 1 mM benzamidine, 0.2 mM PMSF and 0.1% R-mercaptoethanol), KKLNRTLSFAEPG (SEQ ID NO:203) and RRRLSFAEPG (SEQ ID NO:204) (50 mM HEPES pH 7.4) and GGEEEEYFELVKKKK (SEQ ID NO:205) (20 mM MOPS pH 7.0). All kinases were pre-diluted to a 10× working concentration prior to addition into the assay. The composition of the dilution buffer for each kinase is detailed below.
(§2) In a final reaction volume of 25 μl, SGK2 (h) (5-10 mU) is incubated with 8 mM MOPS pH 7.0, 0.2 mM EDTA, 30 μM GRPRTSSFAEGKK (SEQ ID NO:226), 10 mM MgAcetate and [gamma-33P-ATP] (specific activity approx. 500 cpm/pmol, concentration as required). The reaction is initiated by the addition of the MgATP mix. After incubation for 40 minutes at room temperature, the reaction is stopped by the addition of 5 μl of a 3% phosphoric acid solution. 10 μl of the reaction is then spotted onto a P30 filtermat and washed three times for 5 minutes in 75 mM phosphoric acid and once in methanol prior to drying and scintillation counting.

For experiment [2], the target named is Rsk1(r) (Rattus norvegicus, UniProt Q63531). The experiment is classed as biochemical. The following applies: read-out: percent residual activity of Rsk1(r). How it is done: as §1
as §2, with “Rsk1 (r)” for “SGK2 (h)”, “KKKNRTLSVA” for “GRPRTSSFAEGKK”, “NO:212),” for “NO:226),”

In experiment [3] the target is PKCδ(h) (Homo sapiens, UniProt Q05655). Format: biochemical. The following applies: read-out: percent residual activity of PKCδ(h). How it is done: as §1
In a final reaction volume of 25 μl, PKCδ (h) (5-10 mU) is incubated with 20 mM HEPES pH 7.4, 0.03% Triton X-100, 0.1 mg/ml phosphatidylserine, 10 μg/ml diacylglycerol, 50 μM ERMRPRKRQGSVRRRV (SEQ ID NO:224), 10 mM MgAcetate and [gamma-33P-ATP] (specific activity approx. 500 cpm/pmol, concentration as required). The reaction is initiated by the addition of the MgATP mix. After incubation for 40 minutes at room temperature, the reaction is stopped by the addition of 5 μl of a 3% phosphoric acid solution. […]

Experiment [4] concerns the target Pim-1(h) (Homo sapiens, UniProt P11309). The experiment is classed as biochemical. As to conditions: read-out: percent residual activity of Pim-1(h). How it is done:
as §1
as §2, with “μl, Pim-1” for “μl, SGK2”, “EDTA, 100” for “EDTA, 30”, “μM KKRNRTLTV” for “μM GRPRTSSFAEGKK”, “ID NO:219),” for “ID NO:226),”

For experiment [5], the target named is MRCKβ(h) (Homo sapiens, UniProt Q9Y5S2). The experiment is classed as biochemical. The following applies: read-out: percent residual activity of MRCKβ(h). How it is done:
as §1
as §2, with “μl, MRCKβ” for “μl, SGK2”, “EDTA, 100” for “EDTA, 30”, “μM KKRNRTLTV” for “μM GRPRTSSFAEGKK”, “ID NO:219),” for “ID NO:226),”

Experiment [6] has as its system AMPK(r). The experiment is classed as biochemical, rat. As to conditions: 2.5 μM. How it is done: as §1
In a final reaction volume of 25 μl, AMPK (r) (5-10 mU) is incubated with 32 mM HEPES pH 7.4, 0.65 mM DTT, 0.012% Brij-35, 200 μM AMP, 200 μM AMARAASAAALARRR (SEQ ID NO:208), 10 mM MgAcetate and [gamma-33P-ATP] (specific activity approx. 500 cpm/pmol, concentration as required). The reaction is initiated by the addition of the MgATP mix. After incubation for 40 minutes at room temperature, the reaction is stopped by the addition of 5 μl of a 3% phosphoric acid solution. […]

PKCδ(h), sequence (Q05655 whole entry): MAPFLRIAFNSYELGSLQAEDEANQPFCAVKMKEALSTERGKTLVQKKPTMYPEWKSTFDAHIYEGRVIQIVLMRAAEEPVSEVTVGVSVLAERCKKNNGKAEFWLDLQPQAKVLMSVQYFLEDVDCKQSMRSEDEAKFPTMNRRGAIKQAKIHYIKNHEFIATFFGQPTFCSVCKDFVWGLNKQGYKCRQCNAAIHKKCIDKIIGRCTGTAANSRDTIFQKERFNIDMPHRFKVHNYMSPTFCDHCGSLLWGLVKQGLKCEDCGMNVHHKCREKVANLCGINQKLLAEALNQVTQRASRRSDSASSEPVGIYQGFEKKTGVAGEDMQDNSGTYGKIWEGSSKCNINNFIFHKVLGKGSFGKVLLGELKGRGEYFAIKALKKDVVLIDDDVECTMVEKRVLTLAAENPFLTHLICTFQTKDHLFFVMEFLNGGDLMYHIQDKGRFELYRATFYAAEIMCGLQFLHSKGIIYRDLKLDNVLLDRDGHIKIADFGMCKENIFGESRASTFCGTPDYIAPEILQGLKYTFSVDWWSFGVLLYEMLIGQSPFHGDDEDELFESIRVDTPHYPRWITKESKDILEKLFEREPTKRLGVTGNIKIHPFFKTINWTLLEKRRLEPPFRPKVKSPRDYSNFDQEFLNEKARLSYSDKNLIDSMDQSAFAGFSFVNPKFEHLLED
SGK2(h), sequence (Q9HBY8 whole entry): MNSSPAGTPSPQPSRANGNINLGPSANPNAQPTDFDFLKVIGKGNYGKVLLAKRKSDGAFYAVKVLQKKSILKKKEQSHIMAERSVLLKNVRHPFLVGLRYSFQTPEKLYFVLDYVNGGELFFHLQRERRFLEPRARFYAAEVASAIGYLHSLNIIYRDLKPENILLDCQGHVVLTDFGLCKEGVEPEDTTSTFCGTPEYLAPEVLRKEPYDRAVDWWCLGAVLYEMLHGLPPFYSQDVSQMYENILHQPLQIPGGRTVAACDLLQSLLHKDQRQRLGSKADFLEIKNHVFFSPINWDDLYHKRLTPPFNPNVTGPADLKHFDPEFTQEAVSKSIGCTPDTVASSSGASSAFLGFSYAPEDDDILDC
Rsk1(r), sequence (Q63531 whole entry): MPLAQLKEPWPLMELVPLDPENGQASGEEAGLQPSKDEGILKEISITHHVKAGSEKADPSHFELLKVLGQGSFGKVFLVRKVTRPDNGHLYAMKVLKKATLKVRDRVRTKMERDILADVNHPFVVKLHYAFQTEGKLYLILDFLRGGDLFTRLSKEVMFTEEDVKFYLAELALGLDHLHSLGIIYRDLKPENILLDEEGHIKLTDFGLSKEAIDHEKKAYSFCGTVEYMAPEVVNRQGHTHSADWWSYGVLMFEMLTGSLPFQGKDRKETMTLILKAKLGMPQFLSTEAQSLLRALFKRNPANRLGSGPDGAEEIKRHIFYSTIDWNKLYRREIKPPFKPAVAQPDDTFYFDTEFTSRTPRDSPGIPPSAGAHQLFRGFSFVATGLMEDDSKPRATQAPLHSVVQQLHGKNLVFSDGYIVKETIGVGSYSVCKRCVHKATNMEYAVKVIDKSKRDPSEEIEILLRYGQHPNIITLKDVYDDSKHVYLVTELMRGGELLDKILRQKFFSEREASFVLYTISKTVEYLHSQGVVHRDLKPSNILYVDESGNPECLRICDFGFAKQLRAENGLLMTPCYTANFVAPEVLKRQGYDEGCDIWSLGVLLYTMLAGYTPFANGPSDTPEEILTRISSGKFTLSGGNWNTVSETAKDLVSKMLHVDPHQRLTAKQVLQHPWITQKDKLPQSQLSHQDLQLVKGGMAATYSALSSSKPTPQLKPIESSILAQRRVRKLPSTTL
MRCKβ(h), sequence (Q9Y5S2 whole entry): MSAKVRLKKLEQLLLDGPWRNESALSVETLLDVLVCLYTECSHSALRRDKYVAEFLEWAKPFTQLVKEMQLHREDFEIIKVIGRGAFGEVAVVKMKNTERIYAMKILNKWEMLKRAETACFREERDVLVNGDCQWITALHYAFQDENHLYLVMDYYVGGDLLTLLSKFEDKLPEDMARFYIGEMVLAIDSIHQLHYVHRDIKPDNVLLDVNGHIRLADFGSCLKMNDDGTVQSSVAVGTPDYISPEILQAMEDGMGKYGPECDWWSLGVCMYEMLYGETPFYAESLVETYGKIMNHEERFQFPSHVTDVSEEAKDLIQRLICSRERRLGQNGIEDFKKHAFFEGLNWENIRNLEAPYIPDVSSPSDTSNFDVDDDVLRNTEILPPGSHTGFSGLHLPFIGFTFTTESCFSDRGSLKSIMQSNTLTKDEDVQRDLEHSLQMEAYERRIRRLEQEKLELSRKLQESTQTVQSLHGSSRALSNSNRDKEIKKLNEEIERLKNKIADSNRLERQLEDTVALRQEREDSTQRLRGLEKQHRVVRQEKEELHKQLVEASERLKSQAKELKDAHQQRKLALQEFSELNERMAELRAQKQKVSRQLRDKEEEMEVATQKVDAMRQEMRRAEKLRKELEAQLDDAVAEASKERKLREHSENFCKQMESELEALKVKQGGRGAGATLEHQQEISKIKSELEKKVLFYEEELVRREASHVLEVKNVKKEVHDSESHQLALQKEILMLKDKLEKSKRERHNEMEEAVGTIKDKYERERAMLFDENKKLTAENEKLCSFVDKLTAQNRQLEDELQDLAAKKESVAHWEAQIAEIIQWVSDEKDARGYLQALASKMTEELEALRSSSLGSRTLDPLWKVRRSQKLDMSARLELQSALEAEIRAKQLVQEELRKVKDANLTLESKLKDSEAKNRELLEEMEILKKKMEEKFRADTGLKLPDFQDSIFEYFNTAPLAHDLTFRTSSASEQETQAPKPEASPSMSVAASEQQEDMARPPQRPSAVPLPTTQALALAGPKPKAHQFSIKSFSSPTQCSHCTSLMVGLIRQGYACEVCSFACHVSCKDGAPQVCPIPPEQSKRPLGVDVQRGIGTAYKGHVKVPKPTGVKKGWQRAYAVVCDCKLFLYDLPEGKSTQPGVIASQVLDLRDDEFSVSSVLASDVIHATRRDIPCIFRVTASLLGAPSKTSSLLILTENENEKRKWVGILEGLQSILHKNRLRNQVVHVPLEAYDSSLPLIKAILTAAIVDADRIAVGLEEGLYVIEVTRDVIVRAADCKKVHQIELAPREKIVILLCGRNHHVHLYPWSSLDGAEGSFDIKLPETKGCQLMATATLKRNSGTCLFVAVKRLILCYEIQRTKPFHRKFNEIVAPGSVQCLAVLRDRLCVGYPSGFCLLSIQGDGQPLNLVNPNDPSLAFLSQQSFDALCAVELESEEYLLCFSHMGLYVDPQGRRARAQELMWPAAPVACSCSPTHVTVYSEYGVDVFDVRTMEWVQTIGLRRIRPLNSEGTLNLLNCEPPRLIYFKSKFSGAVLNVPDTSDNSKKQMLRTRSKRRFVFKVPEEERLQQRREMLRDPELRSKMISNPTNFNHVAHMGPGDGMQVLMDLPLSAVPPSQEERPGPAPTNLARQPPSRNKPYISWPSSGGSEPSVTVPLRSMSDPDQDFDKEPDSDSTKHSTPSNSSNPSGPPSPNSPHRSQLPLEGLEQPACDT
Pim-1(h), sequence (P11309 whole entry): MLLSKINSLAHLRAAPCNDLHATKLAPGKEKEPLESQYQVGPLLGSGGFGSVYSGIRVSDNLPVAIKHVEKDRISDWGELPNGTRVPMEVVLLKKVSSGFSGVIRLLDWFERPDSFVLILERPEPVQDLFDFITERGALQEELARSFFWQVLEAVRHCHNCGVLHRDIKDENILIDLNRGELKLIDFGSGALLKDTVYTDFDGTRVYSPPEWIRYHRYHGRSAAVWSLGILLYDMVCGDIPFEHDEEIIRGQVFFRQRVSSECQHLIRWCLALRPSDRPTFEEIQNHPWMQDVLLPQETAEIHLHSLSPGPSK

With `CN1CCCC1CCNC(=O)c1cn2c3c(c(N4CCC(c5cnccn5)C4)c(F)cc3c1=O)Oc1cc3ccccc3cc1-2` (stereo not drawn) [Compound A-1], the remaining activity at 2.5 µM in experiment [1] was found to be 38%; in experiment [2], 85%; in experiment [3] it was 105%; in experiment [4], 30%; in experiment [5], 84%. Further, the “percent residual activity of AMPK(r)” value in experiment [6] came to 82%.
`CC(=O)N1CCN(c2ccc3c(=O)c(C(=O)NCCN4CCCC4)c4n(C)c5ccccc5n4c3n2)CC1` [Compound B-1]: the remaining activity at 2.5 µM in experiment [1] turned out to be 104%; in experiment [2], 110%; in experiment [3], 100%; in experiment [4] it was 104%; in experiment [5], 102%. The “percent residual activity of AMPK(r)” value in experiment [6] was found to be 95%.
